Measurements taken from ChEMBL document CHEMBL3727348, “3-(aryl or heteroaryl) methyleneindolin-2-one derivatives as inhibitors of cancer stem cell pathway kinases for the treatment of cancer” (2014).

How the values were obtained:
Assay type in all cases: functional, cell-based
FaDu [1] = test: Cytotoxic activity against human FADU cancer stem cells incubated for 72 hrs by Cell-titer-Glo luminescence assay
A549 [2] = test: Cytotoxic activity against human A549 cancer stem cells incubated for 72 hrs by Cell-titer-Glo luminescence assay; conditions: A549, 72 h
A549 [3] = test: Cytotoxic activity against human A549 bulk cells incubated for 72 hrs by Cell-titer-Glo luminescence assay; conditions: A549, 72 h
ACHN [4] = test: Cytotoxic activity against human ACHN cancer stem cells incubated for 72 hrs by Cell-titer-Glo luminescence assay
FaDu [5] = test: Cytotoxic activity against human FADU bulk cells incubated for 72 hrs by Cell-titer-Glo luminescence assay
ACHN [6] = test: Cytotoxic activity against human ACHN bulk cells incubated for 72 hrs by Cell-titer-Glo luminescence assay

Row | Compound | IC50 (FaDu [1]) [µM] | IC50 (A549 [2]) [µM] | IC50 (A549 [3]) [µM] | IC50 (ACHN [4]) [µM] | IC50 (FaDu [5]) [µM] | IC50 (ACHN [6]) [µM]
1 | CCN(CC)CCNC(=O)c1c(C)[nH]c(/C=C2\C(=O)Nc3cc(-c4cnc5ccccc5c4)ccc32)c1C | 2.83 | 11.6 | 15.8 | 1.07 | 12.9 | –
2 | CCOC(=O)c1[nH]c(/C=C2\C(=O)Nc3ccc(-c4csc(-c5ccccc5)n4)cc32)c2c1CCCC2 | 2.91 | – | – | 1.6 | – | 0.83
3 | O=C1Nc2ccc(-c3csc(-c4ccccc4)n3)cc2/C1=C/c1cc2c([nH]1)CCCC2 | 4.09 | 1.42 | – | 2.52 | 20.2 | 34.6
4 | CCN(CC)CCNC(=O)c1c(C)[nH]c(/C=C2\C(=O)Nc3ccc(-c4cnc5cn[nH]c5c4)cc32)c1C | 0.16 | 26.4 | 3.24 | 10.8 | 1.49 | 2.74
5 | Cc1[nH]c(/C=C2\C(=O)Nc3ccc(-c4csc(-c5ccccc5)n4)cc32)c(C)c1S(=O)(=O)N1CCOCC1 | 0.21 | 3.73 | 7.28 | 0.56 | 11.4 | 10.7
6 | Cc1ccc(-c2nc(-c3ccc4c(c3)/C(=C/c3[nH]c(C)c(C(=O)N5CCN(C)CC5)c3C)C(=O)N4)cs2)cc1 | 1.98 | 0.45 | 8.55 | – | 7.87 | 4.25
7 | CCN(CC)CCNC(=O)CCc1c(C)[nH]c(/C=C2\C(=O)Nc3ccc(-c4csc(-c5ccncc5)n4)cc32)c1C | 4.57 | 35.7 | 10.1 | 1.24 | 28 | 7.42
8 | CCN(CC)CCNC(=O)c1c(C)[nH]c(/C=C2\C(=O)Nc3ccc(-c4csc(-n5ccnc5)n4)cc32)c1C | 21.7 | 18.8 | 6.16 | 2.99 | 5.57 | 9.57
9 | Cc1cc(C)c(/C=C2\C(=O)Nc3ccc(-c4ccccn4)cc32)[nH]1 | – | – | – | 0.02 | – | –
10 | CCN(CC)CCNC(=O)c1c(C)[nH]c(/C=C2\C(=O)Nc3ccc(-c4cncnc4)cc32)c1C | 10.1 | 18 | 7.33 | 0.55 | 4.55 | 3.66
11 | Cc1cc(C)c(/C=C2\C(=O)Nc3ccc(-c4cnc5cccnn45)cc32)[nH]1 | 1.55 | 8.66 | 12.5 | – | 5.23 | –
12 | CCN(CC)CCNC(=O)c1c(C)[nH]c(/C=C2\C(=O)Nc3ccc(-c4nccc5ccccc45)cc32)c1C | 0.03 | 13.9 | 3.18 | 0.71 | 2.13 | 5.05
13 | O=C1Nc2ccc(-c3csc(-c4ccncc4)n3)cc2/C1=C/c1cc2c([nH]1)CCCC2 | – | 0.8 | – | – | – | 37.8
14 | Cc1cc(C)c(/C=C2\C(=O)Nc3ccc(-c4cccc5ncccc45)cc32)[nH]1 | 13.1 | 40 | 11.1 | – | 13.4 | 13.2
15 | CCN(CC)CCNC(=O)c1c(C)[nH]c(/C=C2\C(=O)Nc3ccc(-c4cccc(OC)n4)cc32)c1C | 0.19 | 2.24 | 2.79 | 0.24 | 1.76 | 1.96
16 | Cc1cc(C)c(/C=C2\C(=O)Nc3ccc(-c4cc(-c5ccccc5)ccn4)cc32)[nH]1 | – | 35.7 | 13.8 | – | 22.4 | –
17 | Cc1[nH]c(/C=C2\C(=O)Nc3ccc(-c4cnn(-c5ccccc5)c4)cc32)c(C)c1C(=O)N1CCN(C)CC1 | 0.31 | 4.49 | 6.91 | – | 3.62 | 3.4
18 | CCN(CC)CCNC(=O)c1c(C)[nH]c(/C=C2\C(=O)Nc3cc(-c4ccc(-c5ccccc5)cn4)ccc32)c1C | 1.18 | 4.93 | – | 2.88 | 19.8 | –
19 | Cc1cc(C)c(/C=C2\C(=O)Nc3ccc(-c4ncccn4)cc32)[nH]1 | 25.2 | 28.7 | – | – | 26.1 | 25.3
20 | Cc1ccc(-c2ccc3c(c2)/C(=C/c2[nH]c(C)cc2C)C(=O)N3)cn1 | – | – | 25.8 | 0.01 | – | 24.9
21 | CCN(CC)CCNC(=O)c1c(C)[nH]c(/C=C2\C(=O)Nc3ccc(-c4csc(-c5ccc(CCC(=O)O)cc5)n4)cc32)c1C | 4.88 | 4.21 | – | – | – | –
22 | O=C1Nc2ccc(-c3csc(-c4ccccc4)n3)cc2/C1=C/c1[nH]cc2ccccc12 | 5.04 | – | – | 4.08 | – | –
23 | CCN(CC)CCNC(=O)c1c(C)[nH]c(/C=C2\C(=O)Nc3cc(-c4csc(-c5ccccc5)n4)ccc32)c1C | 0.6 | 3.73 | – | 0.19 | 1.8 | –
24 | CCN(CC)CCNC(=O)c1c(C)[nH]c(/C=C2\C(=O)Nc3ccc(-c4cnc(SC)cn4)cc32)c1C | – | 30 | 6.06 | – | 5.96 | 12.3
25 | CCN(CC)CCNC(=O)c1c(C)[nH]c(/C=C2\C(=O)Nc3ccc(-c4n[nH]c5c(N)cccc45)cc32)c1C | 28.4 | – | 11.6 | 30.9 | 7.09 | 12
